{
  "source": "ChEMBL document CHEMBL5579824",
  "about": "“Novel Hsp90-Targeting PROTACs: Enhanced synergy with cisplatin in combination therapy of cervical cancer” (Eur J Med Chem, 2024)",
  "key": {"SiHa [1]": {"tested_on": "SiHa", "experiment": "Induction of cell cycle arrest in human SiHa cells assessed as accumulation of cells at G1 pahse at 0.05 uM incubated after 48 hrs by PI staining based flow cytometry (reference value: 83.90 %)", "assay_type": "functional"}, "SiHa [2]": {"tested_on": "SiHa", "experiment": "Induction of cell cycle arrest in human SiHa cells assessed as accumulation of cells at G2/M pahse at 0.05 uM incubated after 48 hrs by PI staining based flow cytometry (reference value: 7.37 %)", "assay_type": "functional"}, "SiHa [3]": {"tested_on": "SiHa", "experiment": "Synergistic antiproliferative activity against human SiHa cells assessed as combination index at 0.05 uM incubated for 72 hrs in presence of 0.1 uM cisplatin by CCK-8 assay", "assay_type": "functional"}, "SiHa [4]": {"tested_on": "SiHa", "experiment": "Synergistic antitumor activity against human SiHa cells xenografted in BALB/c nude mouse assessed as tumor growth inhibition at 2 mg/kg, ip co-treated with cisplatin separately for every two days", "assay_type": "functional, organism-based"}, "SiHa [5]": {"tested_on": "SiHa", "experiment": "Induction of cell cycle arrest in human SiHa cells assessed as accumulation of cells at S pahse at 10 uM incubated after 48 hrs by PI staining based flow cytometry (reference value: 8.51 %)", "assay_type": "functional"}, "SiHa [6]": {"tested_on": "SiHa", "experiment": "Synergistic antiproliferative activity against human SiHa cells assessed as combination index at 0.1 uM incubated for 72 hrs in presence of 3.16 uM cisplatin by CCK-8 assay", "assay_type": "functional"}, "SiHa [7]": {"tested_on": "SiHa", "experiment": "Synergistic antiproliferative activity against human SiHa cells assessed as combination index at 0.75 uM incubated for 72 hrs in presence of 0.1 uM cisplatin by CCK-8 assay", "assay_type": "functional"}, "SiHa [8]": {"tested_on": "SiHa", "experiment": "Antitumor activity against human SiHa cells xenografted in BALB/c nude mouse assessed as tumor growth inhibition at 2 mg/kg, ip", "assay_type": "functional, organism-based"}, "SiHa [9]": {"tested_on": "SiHa", "experiment": "Synergistic antiproliferative activity against human SiHa cells assessed as combination index at 0.5 uM incubated for 72 hrs in presence of 31.62 uM cisplatin by CCK-8 assay", "assay_type": "functional"}, "SiHa [10]": {"tested_on": "SiHa", "experiment": "Synergistic antiproliferative activity against human SiHa cells assessed as combination index at 0.1 uM incubated for 72 hrs in presence of 1 uM cisplatin by CCK-8 assay", "assay_type": "functional"}, "SiHa [11]": {"tested_on": "SiHa", "experiment": "Synergistic antiproliferative activity against human SiHa cells assessed as combination index at 0.1 uM incubated for 72 hrs in presence of 0.32 uM cisplatin by CCK-8 assay", "assay_type": "functional"}, "SiHa [12]": {"tested_on": "SiHa", "experiment": "Synergistic antiproliferative activity against human SiHa cells assessed as combination index at 10 uM incubated for 72 hrs in presence of 0.01 uM cisplatin by CCK-8 assay", "assay_type": "functional"}, "SiHa [13]": {"tested_on": "SiHa", "experiment": "Synergistic antiproliferative activity against human SiHa cells assessed as combination index at 0.05 uM incubated for 72 hrs in presence of 0.03 uM cisplatin by CCK-8 assay", "assay_type": "functional"}, "SiHa [14]": {"tested_on": "SiHa", "experiment": "Synergistic antiproliferative activity against human SiHa cells assessed as combination index at 0.75 uM incubated for 72 hrs in presence of 31.62 uM cisplatin by CCK-8 assay", "assay_type": "functional"}, "SiHa [15]": {"tested_on": "SiHa", "experiment": "Synergistic antiproliferative activity against human SiHa cells assessed as combination index at 10 uM incubated for 72 hrs in presence of 0.1 uM cisplatin by CCK-8 assay", "assay_type": "functional"}, "SiHa [16]": {"tested_on": "SiHa", "experiment": "Synergistic antiproliferative activity against human SiHa cells assessed as combination index at 1 uM incubated for 72 hrs in presence of 0.01 uM cisplatin by CCK-8 assay", "assay_type": "functional"}, "SiHa [17]": {"tested_on": "SiHa", "experiment": "Induction of apoptosis in human SiHa cells assessed as early apoptotic cells at 10 uM incubated after 48 hrs by annexin V-FITC/PI staining based flow cytometry (reference value: 2.05 %)", "assay_type": "functional"}, "SiHa [18]": {"tested_on": "SiHa", "experiment": "Synergistic antiproliferative activity against human SiHa cells assessed as combination index at 0.5 uM incubated for 72 hrs in presence of 3.16 uM cisplatin by CCK-8 assay", "assay_type": "functional"}, "[19]": {"target": "Serine/threonine-protein kinase mTOR (Homo sapiens) (UniProt P42345)", "experiment": "Inhibition of mTOR phosphorylation in human SiHa cells incubated for 10 hrs by Western blot analysis", "assay_type": "cell-based", "settings": "dose 0.01-1 µM"}, "SiHa [20]": {"tested_on": "SiHa", "experiment": "Induction of apoptosis in human SiHa cells assessed as viable cells at 10 uM incubated after 48 hrs by annexin V-FITC/PI staining based flow cytometry (reference value: 90.4 %)", "assay_type": "functional", "settings": "read-out: Activity"}, "SiHa [21]": {"tested_on": "SiHa", "experiment": "Synergistic antiproliferative activity against human SiHa cells assessed as combination index at 0.75 uM incubated for 72 hrs in presence of 3.16 uM cisplatin by CCK-8 assay", "assay_type": "functional"}, "[22]": {"target": "T1, Protein cereblon/Heat shock protein HSP 90-alpha/Heat shock protein HSP 90-beta (Homo sapiens) (UniProt P07900+P08238+Q96SW2)", "experiment": "Protac activity at CRBN/Hsp90 in human SiHa cells assessed as decrease in mTOR protein expression level at 0.01 to 1 uM incubated for 10 hrs by Western blot analysis", "assay_type": "cell-based", "settings": "dose 0.01-1 µM"}, "[23]": {"target": "T1, Protein cereblon/Heat shock protein HSP 90-alpha/Heat shock protein HSP 90-beta (Homo sapiens)", "experiment": "Protac activity at CRBN/Hsp90 in human SiHa cells assessed as induction of Hsp90 degradation at 1 uM incubated for 36 hrs by Western blot analysis", "assay_type": "cell-based"}, "SiHa [24]": {"tested_on": "SiHa", "experiment": "Antiproliferative activity against human SiHa cells assessed as inhibition of clone formation ability incubated for 14 days by crystal violet staining based microscopic analysis", "assay_type": "functional, cell-based", "settings": "dose 0.01-1 µM, time 14.0 day"}, "SiHa [25]": {"tested_on": "SiHa", "experiment": "Synergistic antiproliferative activity against human SiHa cells assessed as combination index at 0.75 uM incubated for 72 hrs in presence of 1 uM cisplatin by CCK-8 assay", "assay_type": "functional"}, "HeLa": {"tested_on": "HeLa", "experiment": "Antiproliferative activity against human HeLa cells assessed as reduction in cell viability incubated for 72 hrs by CCK-8 assay", "assay_type": "functional, cell-based"}, "SiHa [26]": {"tested_on": "SiHa", "experiment": "Inhibition of cell migration in human SiHa cells at 0.05 uM measured for 24 to 48 hrs by microscope based wound healing assay", "assay_type": "functional", "settings": "time 24-48 hrs"}, "SiHa [27]": {"tested_on": "SiHa", "experiment": "Synergistic antiproliferative activity against human SiHa cells assessed as combination index at 0.05 uM incubated for 72 hrs in presence of 0.32 uM cisplatin by CCK-8 assay", "assay_type": "functional"}, "SiHa [28]": {"tested_on": "SiHa", "experiment": "Synergistic antiproliferative activity against human SiHa cells assessed as combination index at 0.05 uM incubated for 72 hrs in presence of 10 uM cisplatin by CCK-8 assay", "assay_type": "functional"}, "SiHa [29]": {"tested_on": "SiHa", "experiment": "Synergistic antiproliferative activity against human SiHa cells assessed as combination index at 5 uM incubated for 72 hrs in presence of 0.32 uM cisplatin by CCK-8 assay", "assay_type": "functional"}, "SiHa [30]": {"tested_on": "SiHa", "experiment": "Induction of cell cycle arrest in human SiHa cells assessed as accumulation of cells at S pahse at 1 uM incubated after 48 hrs by PI staining based flow cytometry (reference value: 8.51 %)", "assay_type": "functional"}, "SiHa [31]": {"tested_on": "SiHa", "experiment": "Synergistic antiproliferative activity against human SiHa cells assessed as combination index at 0.1 uM incubated for 72 hrs in presence of 31.62 uM cisplatin by CCK-8 assay", "assay_type": "functional"}, "SiHa [32]": {"tested_on": "SiHa", "experiment": "Synergistic antiproliferative activity against human SiHa cells assessed as combination index at 0.05 uM incubated for 72 hrs in presence of 31.62 uM cisplatin by CCK-8 assay", "assay_type": "functional"}, "SiHa [33]": {"tested_on": "SiHa", "experiment": "Synergistic antiproliferative activity against human SiHa cells assessed as combination index at 0.5 uM incubated for 72 hrs in presence of 0.03 uM cisplatin by CCK-8 assay", "assay_type": "functional"}, "SiHa [34]": {"tested_on": "SiHa", "experiment": "Synergistic antiproliferative activity against human SiHa cells assessed as combination index at 5 uM incubated for 72 hrs in presence of 31.62 uM cisplatin by CCK-8 assay", "assay_type": "functional"}},
  "note": "Activity calls are given as the source filed them. The calls are words filed in the database; no cut-off is given here.",
  "data": [
    {"compound": "CC1(C)CC(=O)c2c(C(F)(F)F)nn(-c3ccc(C(N)=O)c(N[C@H]4CC[C@H](OC(=O)CNC(=O)CCCCCCCNc5cccc6c5CN(C5CCC(=O)NC5=O)C6=O)CC4)c3)c2C1", "note": "(stereo not given in full)", "values": [
      {"measurement": "Activity", "setting": "SiHa [1]", "result": 78.92, "unit": "%"},
      {"measurement": "Activity", "setting": "SiHa [2]", "result": 9.88, "unit": "%"},
      {"measurement": "CI", "setting": "SiHa [3]", "result": 0.36},
      {"measurement": "TGI", "setting": "SiHa [4]", "result": "Active"},
      {"measurement": "Activity", "setting": "SiHa [5]", "result": 13.6, "unit": "%"},
      {"measurement": "CI", "setting": "SiHa [6]", "result": 1.04},
      {"measurement": "CI", "setting": "SiHa [7]", "result": 0.18},
      {"measurement": "TGI", "setting": "SiHa [8]", "result": "Active"},
      {"measurement": "CI", "setting": "SiHa [9]", "result": 0.26},
      {"measurement": "CI", "setting": "SiHa [10]", "result": 0.8},
      {"measurement": "CI", "setting": "SiHa [11]", "result": 0.45},
      {"measurement": "CI", "setting": "SiHa [12]", "result": 2.19},
      {"measurement": "CI", "setting": "SiHa [13]", "result": 0.3},
      {"measurement": "CI", "setting": "SiHa [14]", "result": 0.32},
      {"measurement": "CI", "setting": "SiHa [15]", "result": 2.06},
      {"measurement": "CI", "setting": "SiHa [16]", "result": 0.23},
      {"measurement": "Activity", "setting": "SiHa [17]", "result": 20.83, "unit": "%"},
      {"measurement": "CI", "setting": "SiHa [18]", "result": 0.14},
      {"measurement": "inhibition", "setting": "[19]", "result": "Active"},
      {"measurement": "viability at 10 µM", "setting": "SiHa [20]", "result": 51.9, "unit": "%"},
      {"measurement": "CI", "setting": "SiHa [21]", "result": 0.17},
      {"measurement": "Activity", "setting": "[22]", "result": "inactive"},
      {"measurement": "Activity", "setting": "[23]", "result": "inactive"},
      {"measurement": "inhibition", "setting": "SiHa [24]", "result": "Dose-Dependent Effect"},
      {"measurement": "CI", "setting": "SiHa [25]", "result": 0.17},
      {"measurement": "IC50", "setting": "HeLa", "result": 80, "unit": "nM"},
      {"measurement": "inhibition", "setting": "SiHa [26]", "result": "Active"},
      {"measurement": "CI", "setting": "SiHa [27]", "result": 0.38},
      {"measurement": "CI", "setting": "SiHa [28]", "result": 1.26},
      {"measurement": "CI", "setting": "SiHa [29]", "result": 0.95},
      {"measurement": "Activity", "setting": "SiHa [30]", "result": 13.56, "unit": "%"},
      {"measurement": "CI", "setting": "SiHa [31]", "result": 0.24},
      {"measurement": "CI", "setting": "SiHa [32]", "result": 0.25},
      {"measurement": "CI", "setting": "SiHa [33]", "result": 0.14},
      {"measurement": "CI", "setting": "SiHa [34]", "result": 0.53}
    ]}
  ]
}
